Laboratory results as given in ChEMBL document CHEMBL1201862, “PubChem BioAssay data set” (2004).
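Tested at 5 concentrations; 48 h exposure; 96-well plates; endpoints linearly interpolated, else capped at highest concentration. Abbreviation: GI50, concentration required for 50% inhibition of growth.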 Active and inactive are the calls of the source. Rule as the data show it: active = GI50 up to about 1.1 µM and inactive = higher.

Key:
Experiment in all cases: growth of human tumour cells (NCI), 48 h
DMS-273 = system: DMS-273
TK-10 = system: TK-10
K562 = system: K562
OVCAR-3 = system: OVCAR-3
SF-268 = system: SF-268
LXFL 529 = system: LXFL 529
MOLT-4 = system: MOLT-4
786-0 = system: 786-0
NCI-H226 = system: NCI-H226
UACC-62 = system: UACC-62
SK-MEL-2 = system: SK-MEL-2
LOX IMVI = system: LOX IMVI
SF-539 = system: SF-539
A498 = system: A498
SK-MEL-5 = system: SK-MEL-5
SF-295 = system: SF-295
SK-MEL-28 = system: SK-MEL-28
NCI-H460 = system: NCI-H460
SNB-78 = system: SNB-78
DMS-114 = system: DMS-114
HCT-116 = system: HCT-116
SR = system: SR
A549 = system: A549
SN12C = system: SN12C
HL-60 = system: HL-60
IGROV-1 = system: IGROV-1
Malme-3M = system: Malme-3M
CCRF-CEM = system: CCRF-CEM
UO-31 = system: UO-31
SK-OV-3 = system: SK-OV-3
M19-MEL = system: M19-MEL
OVCAR-5 = system: OVCAR-5
HCC 2998 = system: HCC 2998
ACHN = system: ACHN
XF498 = system: XF498
SNB-75 = system: SNB-75
EKVX = system: EKVX
DLD-1 = system: DLD-1
M14 = system: M14
HOP-62 = system: HOP-62
NCI-H522 = system: NCI-H522
HCT-15 = system: HCT-15
KM12 = system: KM12
SW-620 = system: SW-620
OVCAR-8 = system: OVCAR-8
U-251 = system: U-251
SNB-19 = system: SNB-19
NCI-H23 = system: NCI-H23
OVCAR-4 = system: OVCAR-4
CAKI-1 = system: CAKI-1
COLO 205 = system: COLO 205
HOP-92 = system: HOP-92
UACC-257 = system: UACC-257
KM-20L2 = system: KM-20L2

With `CCn1c2ccccc2c2c(-c3ccccc3)cc3c(c21)C(=O)N(c1ccccc1)C3=O` the GI50 (DMS-273) was 46.2 µM (inactive), the GI50 (TK-10) was > 100 µM (inactive) and the GI50 (K562) was > 100 µM (inactive). For the same compound, the GI50 (OVCAR-3) was > 100 µM (inactive), the GI50 (SF-268) was 76.6 µM (inactive) and the GI50 (LXFL 529) was > 100 µM (inactive). The GI50 (MOLT-4) was > 100 µM (inactive), the GI50 (786-0) was > 100 µM (inactive) and the GI50 (NCI-H226) was > 100 µM (inactive). For the same compound, the GI50 (UACC-62) was > 100 µM (inactive), the GI50 (SK-MEL-2) was > 100 µM (inactive) and the GI50 (LOX IMVI) was > 100 µM (inactive). For the same compound, the GI50 (SF-539) was > 100 µM (inactive), the GI50 (A498) was > 100 µM (inactive) and the GI50 (SK-MEL-5) was > 100 µM (inactive). For the same compound, the GI50 (SF-295) was > 100 µM (inactive), the GI50 (SK-MEL-28) was > 100 µM (inactive) and the GI50 (NCI-H460) was 36.6 µM (inactive). For the same compound, the GI50 (SNB-78) was > 100 µM (inactive), the GI50 (DMS-114) was > 100 µM (inactive) and the GI50 (HCT-116) was 95.5 µM (inactive). For the same compound, the GI50 (SR) was > 100 µM (inactive), the GI50 (A549) was > 100 µM (inactive) and the GI50 (SN12C) was 91 µM (inactive). The GI50 (HL-60) was > 100 µM (inactive), the GI50 (IGROV-1) was > 100 µM (inactive) and the GI50 (Malme-3M) was > 100 µM (inactive). The GI50 (CCRF-CEM) was > 100 µM (inactive), the GI50 (UO-31) was > 100 µM (inactive) and the GI50 (SK-OV-3) was > 100 µM (inactive). For the same compound, the GI50 (M19-MEL) was > 100 µM (inactive), the GI50 (OVCAR-5) was > 100 µM (inactive) and the GI50 (HCC 2998) was > 100 µM (inactive). The GI50 (ACHN) was 99.8 µM (inactive), the GI50 (XF498) was > 100 µM (inactive) and the GI50 (SNB-75) was 89.5 µM (inactive). The GI50 (EKVX) was > 100 µM (inactive), the GI50 (DLD-1) was > 100 µM (inactive) and the GI50 (M14) was > 100 µM (inactive). For the same compound, the GI50 (HOP-62) was > 10 µM (inactive), the GI50 (NCI-H522) was > 100 µM (inactive) and the GI50 (HCT-15) was over 100 µM. For the same compound, the GI50 (KM12) was > 100 µM (inactive), the GI50 (SW-620) was > 100 µM (inactive) and the GI50 (OVCAR-8) was > 100 µM (inactive). The GI50 (U-251) was > 100 µM (inactive), the GI50 (SNB-19) was 81.5 µM (inactive) and the GI50 (NCI-H23) was > 100 µM (inactive). For the same compound, the GI50 (OVCAR-4) was > 100 µM (inactive), the GI50 (CAKI-1) was > 100 µM (inactive) and the GI50 (COLO 205) was > 100 µM (inactive). The GI50 (HOP-92) was 34.4 µM (inactive), the GI50 (UACC-257) was > 100 µM (inactive) and the GI50 (KM-20L2) was > 100 µM (inactive).
